Laboratory results as given in patent US20260327232A1, “Heteroaryl Compounds as Ligand Directed Degraders of IRAK4” (Celgene Corporation, priority 2023, published 2026).
Where a name gives a salt, the structure may show the parent alone.

What was measured:
IRAK4 [1] = target: T1, IRAK4 (Homo sapiens, UniProt Q9NWZ3); assay: IRAK4 PhosphoSens Biochemical Assay (BIOCHEM); conditions: 200 μM ATP, 10 μM peptide substrate AQT0326, 1 nM IRAK4, room temperature, 240 minutes
T1 sequence (Q9NWZ3 1-460): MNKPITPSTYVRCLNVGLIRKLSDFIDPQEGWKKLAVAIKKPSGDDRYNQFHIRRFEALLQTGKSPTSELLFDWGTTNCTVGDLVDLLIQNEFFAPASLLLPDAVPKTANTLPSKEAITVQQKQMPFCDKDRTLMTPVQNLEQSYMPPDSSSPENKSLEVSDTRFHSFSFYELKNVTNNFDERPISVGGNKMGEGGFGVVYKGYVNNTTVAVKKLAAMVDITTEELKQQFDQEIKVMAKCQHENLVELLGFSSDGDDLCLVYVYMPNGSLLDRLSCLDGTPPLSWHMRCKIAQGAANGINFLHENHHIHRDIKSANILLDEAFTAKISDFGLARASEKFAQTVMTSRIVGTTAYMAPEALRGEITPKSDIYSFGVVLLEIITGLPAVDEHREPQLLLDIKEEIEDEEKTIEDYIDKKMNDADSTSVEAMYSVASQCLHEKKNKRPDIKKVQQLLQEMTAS
Protocol: The PhosphoSens® biochemical assay was performed as described by the vendor (AssayQuant Technologies Inc. Marlborough, MA). A 1.25× stock solution of IRAK4 (PV4002, ThermoFisher Scientific, Waltham, MA) and a 5× stock solution of ATP and Sox conjugated peptide substrate, AQT0326 (CSKS-AQT0326B, AssayQuant Technologies), were prepared in 1× kinase reaction buffer consisting of 50 mM HEPES, pH 7.5, 0.01% Brij-35, 0.5 mM EGTA, 20 mM MgCl2 and 1 mM DTT. 10 μL of the ATP and substrate solution mix, for a final concentration of 200 μM ATP and 10 μM peptide substrate, was added to a Coming 3574 384-well, white, non-binding surface microtiter plate containing 0.5 μL of serially diluted test compounds prepared in DMSO. The reactions were started with the addition of 40 μL of the enzyme solution, for a final IRAK4 concentration of 1 nM, and monitored every 71 seconds for 240 minutes at λEX 360/λEM 485 in a BioTek Synergy H4 plate reader (Agilent Technologies, Santa Clara, CA) at room temperature. The initial linear portions of the progress curves were fit according to a linear equation to yield the slopes and converted to % inhibition based on a value of 100% activity for the no inhibitor treated control. IC50 values of each compound were obtained by fitting the % inhibition-compound concentration curves using Dotmatics software (Dotmatics, Bishops Stortford, Hertfordshire, England).

IRAK4 [2] = target: T1, IRAK4; assay: ALE THP1 HTRF (IRAK4 in THP1 cell lysates, Homogeneous Time Resolved Fluorescence); type: cell-based; set-up: THP1 Homogeneous Time Resolved Fluorescence (ALE THP1 HTRF) Procedure; endogenous in cells; host or cells: THP1; conditions: THP1 cells
Protocol: Cell culture media was prepared in a tissue culture hood in a sterile environment by adding 10% FBS and 1% Penicillin Streptomycin to 500 mL no phenol red RPMI 1640 media. The media was filtered through a Nalgene Bottle Top Filter and stored at 4° C.
For Homogenous Time Resolved Fluorescence (HTRF) assays, a Cisbio HTRF kit was used, which included: Lysis Buffer #1 4×, Blocking Reagent #3 100×, 20× Antibody 1 (Anti-IRAK4 d2), 20× Antibody 2 (Anti-IRAK4 k), and Detection Buffer.
4× Lysis Buffer was stored at 4° C. For use as 1× Lysis buffer, the 4× solution was diluted with de-ionized water (distilled water, Gibco Cat. #15230279) and 100× Blocking Reagent in a 1:3:0.04 volume ratio.
20× Antibody Solution aliquots were stored in −80° C. and the Detection Buffer was stored in 4° C. For use as a 1× Antibody Solution, the 20× Antibody Solution aliquot was diluted with Detection Buffer in a 1:19 volume ratio.
Cells were lysed at room temperature for 45 min with shaking. A BCA protein assay was performed and normalization was conducted to the desired total protein concentration with 1× lysis buffer. Next, 1× Antibody Solutions were prepared by adding 380 μL Detection Buffer to 20 μL 20× Antibody Solution aliquots and mixing well. 1× Antibody Solutions were combined 1:1 and briefly vortexed. For control wells, 20 μL 1× anti IRAK4-k Antibody Solution was saved. The 384-well plate (ProxiPlate-384 Plus, Perkin Elmer Cat. #6008289) was loaded by adding 4 μL of the mixed Antibody Solution to empty wells using a single channel repeater. Using a multi-channel repeater, 16 μL lysate was added per well, and any bubbles that were formed were popped with 20 μL pipette tips and Kimwipe edges. In column 10, triplicates of each control was prepared. In wells A10, B10, and C10, buffer control was prepared by adding 16 μL Lysis Buffer and 4 μL Detection Buffer. In wells D10, E10, and F10, cryptate control was prepared by adding 16 μL Lysis Buffer, 2 μL Detection Buffer, and 2 μL 1× anti IRAK4-k Antibody Solution. In wells G10, H10, and 110, a negative control was prepared by adding 16 μL Lysis Buffer and 4 μL mixed Antibody Solution. The plate was sealed with a clear seal and covered with an aluminum lid. The plate was spun down at 800 g for 5 min and incubated in the dark at room temperature overnight. The next day, the plate was spun down at 800 g for 5 min. The samples were analyzed by a plate reader (Envision, PerkinElmer) using the Desnor 384 HTRF program.

Compound | IC50 (IRAK4 [1]) | EC50 (IRAK4 [2])
Cn1nc(C2CCC(=O)NC2=O)c2ccc(NC3CCN(CC4CCC(n5cc(NC(=O)c6cnn7ccc(N8CC[C@H](F)[C@@H](N)C8)nc67)c(C(F)F)n5)CC4)CC3)cc21 (stereo partly drawn) [P-18, N-[3-(Difluoromethyl)-1-[4-[[4-[[3-(2,6-dioxo-3-piperidyl)-1-methyl-indazol-6-yl]amino]-1-piperidyl]methyl]cyclohexyl]pyrazol-4-yl]-5-[(3S,4S)-3-amino-4-fluoro-1-piperidyl]pyrazolo[1,5-a]pyrimidine-3-carboxamide] | < 0.5 nM | 1 nM
Cn1nc(C2CCC(=O)NC2=O)c2ccc(NC3CCN(CC4CCC(n5cc(NC(=O)c6cnn7ccc(N8CCOCC8)nc67)c(C(F)F)n5)CC4)CC3)cc21 (centres unmarked) [P-27, N-[3-(Difluoromethyl)-1-[4-[[4-[[3-(2,6-dioxo-3-piperidyl)-1-methyl-indazol-6-yl]amino]-1-piperidyl]methyl]cyclohexyl]pyrazol-4-yl]-5-morpholino-pyrazolo[1,5-a]pyrimidine-3-carboxamide formic acid salt] | < 0.5 nM | 1 nM
CN(CC1CCC(n2cc(NC(=O)c3cnn4ccc(N5CC[C@H](C#N)C5)nc34)c(C(F)F)n2)CC1)C1CCN(c2ccc3c(C4CCC(=O)NC4=O)nn(C)c3c2)CC1 (some centres unmarked) [P-50] | 0.8 nM | > 10000 nM
Cn1nc(C2CCC(=O)NC2=O)c2ccc(NC3CCN(CC4CCC(n5cc(NC(=O)c6cnn7ccc(N8C[C@H](N)C[C@@H](F)C8)nc67)c(C(F)F)n5)CC4)CC3)cc21 (stereo partly drawn) [P-2, N-[3-(difluoromethyl)-1-[4-[[4-[[3-(2,6-dioxo-3-piperidyl)-1-methyl-indazol-6-yl]amino]-1-piperidyl]methyl]cyclohexyl]pyrazol-4-yl]-5-[(3R,5R)-3-amino-5-fluoro-1-piperidyl]pyrazolo[1,5-a]pyrimidine-3-carboxamide] | < 0.5 nM | 4 nM
